Counter-ions that a name gives are not always drawn.
Tests used:
[1] = 6-week study: treatment toxicity (body mass, blood, organ mass, survival); settings: 30 mg/kg 5-FU
[2] = 14-week study: treatment toxicity and weight; settings: 50 mg/kg weekly
HT-29 = assay: Drug cytotoxicity assay, Camptosar ± 100 nM hyaluronan; type: cell-based; settings: Homo sapiens, 48 hours continuous exposure, HyCAMP = Camptosar + 100 nM hyaluronan
Excerpt: (§1) Human Colon Carcinoma Cell Lines HT-29, HCT-116, SK-CO-1, SW620, SW1222 were obtained from the Peter MacCallum, Cancer Institute, Melbourne. […] Human colon carcinoma cell lines 1215 and LIM2099 were kindly donated by Dr R Whitehead, Ludwig Institute, Melbourne. […] The various concentrations of Camptosar were achieved by diluting in the appropriate amount of growth media The HCT-116, HT-29, SK-CO-1, LIM1215, LIM2099, SW620 and SW1222 cell lines were routinely grown to 80% confluency. The cells were removed from the culture flask and counted using the haematocytometer. The cells HT-29, HCT-116, SK-CO-1, SW620 and SW1222 were resuspended to 15,000 cells/ml of cell-specific media. The LIM1215 and LIM2099 were resuspended to 30,000 cells/ml of cell-specific media. The cells were plated into 48 well culture plates (1 cm^2 surface area) by adding 1 ml of cell suspension per well. The cells were allowed to attach overnight prior to exposure to the test media. The cells were continuously exposed to the following concentrations of test media: 0 μg/ml, 0.25 μg/ml, 0.5 μg/ml, 1 μg/ml, 5 μg/ml, 25 μg/ml and 50 μg/ml Camptosar±100 nM hyaluronan (Modal Mw 850,000). The cells were continuously incubated with the test media for 48 hours. On the day of analysis, the cells were washed with Hanks Balanced Salt Solution. Subsequently, the cells were removed by trypsinization with 0.25% trypsin/EDTA. An aliquot of the trypsinized cell suspension was counted by the Coulter Counter. The raw duplicate or triplicate counts per well were obtained from the Z2 coulter counter. The counts will be averaged and will be expressed as percentage of no drug control.

SK-CO-1 = assay: as above; type: cell-based; settings: Homo sapiens, 48 hours continuous exposure, HyCAMP = Camptosar + 100 nM hyaluronan
Excerpt: as §1

SW1222 = assay: as above; type: cell-based; settings: Homo sapiens, 48 hours continuous exposure, HyCAMP = Camptosar + 100 nM hyaluronan
Excerpt: as §1

SW 620 = assay: as above; type: cell-based; settings: Homo sapiens, 48 hours continuous exposure, HyCAMP = Camptosar + 100 nM hyaluronan
Excerpt: as §1

HCT-116 = assay: as above; type: cell-based; settings: Homo sapiens, 48 hours continuous exposure, HyCAMP = Camptosar + 100 nM hyaluronan
Excerpt: as §1

LIM 2099 = assay: as above; type: cell-based; settings: Homo sapiens; 48 hours continuous exposure; HyCAMP = Camptosar + 100 nM hyaluronan
Excerpt: as §1

LIM 1215 = assay: as above; type: cell-based; settings: Homo sapiens, LIM1215; 48 hours continuous exposure; HyCAMP = Camptosar + 100 nM hyaluronan
Excerpt: as §1

[3] = test system: Human LIM1215 colon cancer xenografts; assay: 14-week efficacy study, irinotecan ± HA in colon cancer xenografts; type: in vivo, mouse; settings: 50 mg/kg weekly; listed as irinotecan, hydrochloride
Excerpt: Human LIM1215 colon cancer xenografts were inoculated into the mammary fat pad of athymic […] nude mice. Mice were randomly distributed into eight treatment groups (8 mice per group).
The treatment regime comprised of injections on Day 1 of a 7-day cycle for duration of fourteen weeks. Primary tumor volume, animal body mass, energy levels and food consumption were monitored three times weekly.
Athymic CBA/WEHI nude female mice (Walter and Eliza Hall Research Institute, Melbourne, Australia), 6 to 8 weeks old, were maintained under specific pathogen-free conditions, with sterilized food and water available ad libitum. Each mouse received one injection containing 1×10^7 cells in 50-100 μl. […]
Any animals with a tumor volume expressed as a percentage of body weight outside 0.25±0.10 (mean±1 SD) were excluded from data analysis. […]
The experimental end-point for each animal occurred either when the animal had to be euthanized due to a high degree of disease progression or when the 14-week study had been completed. The animals were monitored three times weekly and the following criteria were established to determine whether an animal had reached the experimental end point: tumour mass is greater than 10% of the animals total body mass; the animal is metabolically stressed (i.e. losing weight); or the animal is immobilized.

[4] = In vivo toxicology, daily iv Camptosar or HyCAMP; settings: for immediate neurological toxicity, early or late on-set diarrhea: Camptosar or HyCAMP; for LD50: iv
[5] = substance implied by list of adriamycin groups; cited from earlier work
[6] = test system: human breast cancer cells; assay: Breast cancer cell count assay, cell line not specified or pooled; type: cell-based; settings: Homo sapiens; cell line not stated; read-out: IC50 of adriamycin
Method: The cell suspensions were counted with an automated cell counter (ZM-2 Coulter Counter) by adding 15 mL saline+0.2 ml of cell suspension. • Cells were resuspended to a number of: […] The cell suspensions were counted with an automated cell counter (ZM-2 Coulter Counter) by adding 15 mL saline+0.2 ml of cell suspension. Results were expressed as % of no drug control which was calculated as: […]

## O=c1[nH]cc(F)c(=O)[nH]1 [5-FU, 5-fluorouracil, reference compound]
[1]
  shrinkage of the uterus: 22%
[1]; vs saline group
  enlarged spleen, increase in mass: 61%

## CCc1c2c(nc3ccc(OC(=O)N4CCC(N5CCCCC5)CC4)cc13)-c1cc3c(c(=O)n1C2)COC(=O)[C@]3(O)CC [Camptosar, irinotecan hydrochloride]
[2]
  degree of observed weight loss, irinotecan vs HyCAMP groups: comparable
HT-29
  IC50: 16 µM
SK-CO-1
  IC50: 5 µM
SW1222
  IC50: 32 µM
SW 620
  IC50: 10 µM
HCT-116
  IC50: 1.5 µM
LIM 2099
  IC50: 31 µM
LIM 1215
  IC50: 16 µM
[3]
  population survival to the end of the 14-week study: approximately 57%
[4]; 25 mg/kg daily iv
  accumulative dose received without severe adverse effects: 350 mg/kg
  body weight lost compared to HyCAMP group: 18%
  immediate neurological toxicity, early or late on-set diarrhea: did not exhibit any immediate neurological toxicity, early or late on-set diarrhea
[4]; 25 mg/kg daily iv (HyCAMP: + 13.3 mg/kg HA)
  survival time: 14 days
[4]; 50 mg/kg daily iv
  survival time: ≤ 12 days
  immediate neurological toxicity, early or late on-set diarrhea: did not exhibit any immediate neurological toxicity, early or late on-set diarrhea
[4]; 100 mg/kg daily iv
  diarrhea grade: 2-3 Grade
  survival time: ≤ 7 days
[4]; 100 mg/kg iv
  onset of neurological effects after injection: 30 seconds
  time to fully recuperate from neurological effects: 5 h
[4]; 150 mg/kg iv
  onset of neurological effects after injection: 30 seconds
  recuperation from neurological effects: did not recuperate
[4]; 200 mg/kg iv
  onset of neurological effects after injection: 30 seconds
  recuperation from neurological effects: did not recuperate
[4]; 50-100 mg/kg
  organ mass compared to HyCAMP treatment group: significant increase in the mass of the stomach, lungs, spleen and brain
[4]; male, F1 CBAXC57 (out-bred), mouse, in vivo, intravenous
  LD50 at 14 days: 475 to 550 mg/kg
[4]; male, F1 CBAXC57 (out-bred), mouse, in vivo, 50 mg/kg
  LD50: 475 mg/kg
[4]; male, F1 CBAXC57 (out-bred), mouse, in vivo, 100 mg/kg
  LD50: 550 mg/kg
[4]; single bolus iv
  lethal dose: > 100 mg/kg

## COc1cccc2c1C(=O)c1c(O)c3c(c(O)c1C2=O)C[C@@](O)(C(=O)CO)C[C@@H]3O[C@H]1C[C@H](N)[C@H](O)[C@H](C)O1 [adriamycin, doxorubicin, reference compound]
[5]
  Mouse LD50: 10 mg/kg
[6]
  IC50: 0.09 µM

From US20060178342A1, “Hyaluronan as a cytotoxic agent, drug pre-sensitizer and chemo-sensitizer in the treatment of disease” (priority 2001, published 2006)
